Measurements published in patent US11203613B2, “Peptidomimetic proteasome inhibitors” (CORNELL UNIVERSITY, priority 2017, dated 2021).

Biological target: Human Constitutive (Hu C-20S) β5 Active Subunit (Homo sapiens, UniProt P28074)
Assay: IC50 determination, human constitutive 20S proteasome β5c (suc-LLVY-AMC hydrolysis)
Type: biochemical
Conditions: Table 3; IC50 against human constitutive β5 active subunit; read-out: Hu-C20S β5

Row | SMILES | IC50 [µM]
1 | C[C@H]1CCCCN1C(=O)C[C@H](NC(=O)C1CC2(C1)CC(F)(F)C2)C(=O)NC1(c2nc3cccc(F)c3[nH]2)CC1 (stereo in doubt) [CEN-62, 6,6-Difluoro-N—((S)-1-((1-(7-fluoro-1H-benzo[d]imidazol-2-yl)cyclopropyl)amino)-4-((S)-2-methylpiperidin-1-yl)-1,4-dioxobutan-2-yl)spiro[3.3]heptane-2-carboxamide] | 2.4
2 | CC[C@H]1CCCCN1C(=O)C[C@H](N)C(=O)N[C@@H](C)c1nc2c(F)cccc2[nH]1 [CEN-1, (S)-2-Amino-4-((S)-2-ethylpiperidin-1-yl)-N—((S)-1-(4-fluoro-1H-benzo[d]imidazol-2-yl)ethyl)-4-oxobutanamide] | 14.2
3 | CC[C@H]1CCCCN1C(=O)C[C@H](NC(=O)CC1CC1)C(=O)N[C@@H](C)c1nc2c(F)cccc2[nH]1 [CEN-2, (S)-2-(2-Cyclopropylacetamido)-4-((S)-2-ethylpiperidin-1-yl)-N—((S)-1-(4-fluoro-1H-benzo[d]imidazol-2-yl)ethyl)-4-oxobutanamide] | 16.9
4 | CC[C@H]1CCCCN1C(=O)C[C@H](NC(=O)CCC(C)C)C(=O)N[C@@H](C)c1nc2c(F)cccc2[nH]1 [CEN-3, N—((S)-4-((S)-2-Ethylpiperidin-1-yl)-1-(((S)-1-(4-fluoro-1H-benzo[d]imidazol-2-yl)ethyl)amino)-1,4-dioxobutan-2-yl)-4-methylpentanamide] | 10.6
5 | CC[C@H]1CCCCN1C(=O)C[C@H](NC(=O)CCN(C)C)C(=O)N[C@@H](C)c1nc2c(F)cccc2[nH]1 [CEN-4, (S)-2-(3-(Dimethylamino)propanamido)-4-((S)-2-ethylpiperidin-1-yl)-N—((S)-1-(4-fluoro-1H-benzo[d]imidazol-2-yl)ethyl)-4-oxobutanamide] | 6.4
6 | CC[C@H]1CCCCN1C(=O)C[C@H](NC(=O)OCC(C)C)C(=O)N[C@@H](C)c1nc2c(F)cccc2[nH]1 [CEN-5, Isobutyl ((S)-4-((S)-2-Ethylpiperidin-1-yl)-1-(((S)-1-(4-fluoro-1H-benzo[d]imidazol-2-yl)ethyl)amino)-1,4-dioxobutan-2-yl)carbamate] | 2.5
7 | CC[C@H]1CCCCN1C(=O)C[C@H](NC(=O)c1cc(C)on1)C(=O)N[C@@H](C)c1nc2c(F)cccc2[nH]1 [CEN-6, N—((S)-4-((S)-2-Ethylpiperidin-1-yl)-1-(((S)-1-(4-fluoro-1H-benzo[d]imidazol-2-yl)ethyl)amino)-1,4-dioxobutan-2-yl)-5-methylisoxazole-3-carboxamide] | 7.1
8 | CC[C@H]1CCCCN1C(=O)C[C@H](NC(=O)CC(F)(F)F)C(=O)N[C@@H](C)c1nc2c(F)cccc2[nH]1 [CEN-7, (S)-4-((S)-2-Ethylpiperidin-1-yl)-N—((S)-1-(4-fluoro-1H-benzo[d]imidazol-2-yl)ethyl)-4-oxo-2-(3,3,3-trifluoropropanamido)butanamide] | 4.2
9 | CC[C@H]1CCCCN1C(=O)C[C@H](Nc1nc(C(C)C)no1)C(=O)N[C@@H](C)c1nc2c(F)cccc2[nH]1 [CEN-8, (S)-4-((S)-2-Ethylpiperidin-1-yl)-N—((S)-1-(4-fluoro-1H-benzo[d]imidazol-2-yl)ethyl)-2-((3-isopropyl-1,2,4-oxadiazol-5-yl)amino)-4-oxobutanamide] | 3.6
10 | CC[C@H]1CCCCN1C(=O)C[C@H](NC(=O)C1CC(C)(C)C1)C(=O)N[C@@H](C)c1nc2c(F)cccc2[nH]1 [CEN-9, N—((S)-4-((S)-2-Ethylpiperidin-1-yl)-1-(((S)-1-(4-fluoro-1H-benzo[d]imidazol-2-yl)ethyl)amino)-1,4-dioxobutan-2-yl)-3,3-dimethylcyclobutane-1-carboxamide] | 4.4
11 | CC[C@H]1CCCCN1C(=O)C[C@H](NC(=O)C1CC1C(C)C)C(=O)N[C@@H](C)c1nc2c(F)cccc2[nH]1 (stereo partly drawn) [CEN-10, N—((S)-4-((S)-2-Ethylpiperidin-1-yl)-1-(((S)-1-(4-fluoro-1H-benzo[d]imidazol-2-yl)ethyl)amino)-1,4-dioxobutan-2-yl)-2-isopropylcyclopropane-1-carboxamide] | 37.7
12 | CC[C@H]1CCCCN1C(=O)C[C@H](NC(=O)c1cncs1)C(=O)N[C@@H](C)c1nc2c(F)cccc2[nH]1 [CEN-11, N—((S)-4-((S)-2-Ethylpiperidin-1-yl)-1-(((S)-1-(4-fluoro-1H-benzo[d]imidazol-2-yl)ethyl)amino)-1,4-dioxobutan-2-yl)thiazole-5-carboxamide] | 19.2
13 | CC[C@H]1CCCCN1C(=O)C[C@H](NC(=O)N1CCCCC1)C(=O)N[C@@H](C)c1nc2c(F)cccc2[nH]1 [CEN-12, N—((S)-4-((S)-2-Ethylpiperidin-1-yl)-1-(((S)-1-(4-fluoro-1H-benzo[d]imidazol-2-yl)ethyl)amino)-1,4-dioxobutan-2-yl)piperidine-1-carboxamide] | 3
14 | CC[C@H]1CCCCN1C(=O)C[C@H](NC(=O)CCC(C)(C)C)C(=O)N[C@@H](C)c1nc2c(F)cccc2[nH]1 [CEN-13, N—((S)-4-((S)-2-Ethylpiperidin-1-yl)-1-(((S)-1-(4-fluoro-1H-benzo[d]imidazol-2-yl)ethyl)amino)-1,4-dioxobutan-2-yl)-4,4-dimethylpentanamide] | 11.2
15 | CC[C@H]1CCCCN1C(=O)C[C@H](NC(=O)N1CCOCC1)C(=O)N[C@@H](C)c1nc2c(F)cccc2[nH]1 [CEN-14, N—((S)-4-((S)-2-Ethylpiperidin-1-yl)-1-(((S)-1-(4-fluoro-1H-benzo[d]imidazol-2-yl)ethyl)amino)-1,4-dioxobutan-2-yl)morpholine-4-carboxamide] | 4.5
16 | CC[C@H]1CCCCN1C(=O)C[C@H](NC(=O)N(C)CC(C)C)C(=O)N[C@@H](C)c1nc2c(F)cccc2[nH]1 [CEN-15, (S)-4-((S)-2-Ethylpiperidin-1-yl)-N—((S)-1-(4-fluoro-1H-benzo[d]imidazol-2-yl)ethyl)-2-(3-isobutyl-3-methylureido)-4-oxobutanamide] | 5
17 | CC[C@H]1CCCCN1C(=O)C[C@H](Nc1nc2ccccc2o1)C(=O)N[C@@H](C)c1nc2c(F)cccc2[nH]1 [CEN-16, (S)-2-(Benzo[d]oxazol-2-ylamino)-4-((S)-2-ethylpiperidin-1-yl)-N—((S)-1-(4-fluoro-1H-benzo[d]imidazol-2-yl)ethyl)-4-oxobutanamide] | 4.5
18 | CC[C@H]1CCCCN1C(=O)C[C@H](NC(=O)C1CC2(CCC2)C1)C(=O)N[C@@H](C)c1nc2c(F)cccc2[nH]1 [CEN-17, N—((S)-4-((S)-2-Ethylpiperidin-1-yl)-1-(((S)-1-(4-fluoro-1H-benzo[d]imidazol-2-yl)ethyl)amino)-1,4-dioxobutan-2-yl)spiro[3.3]heptane-2-carboxamide] | 13.4
19 | CC[C@H]1CCCCN1C(=O)C[C@H](NC(=O)c1cnc(C)s1)C(=O)N[C@@H](C)c1nc2c(F)cccc2[nH]1 [CEN-18, N—((S)-4-((S)-2-Ethylpiperidin-1-yl)-1-(((S)-1-(4-fluoro-1H-benzo[d]imidazol-2-yl)ethyl)amino)-1,4-dioxobutan-2-yl)-2-methylthiazole-5-carboxamide] | 9.5
20 | CC[C@H]1CCCCN1C(=O)C[C@H](Nc1nc2ccc(C)cc2o1)C(=O)N[C@@H](C)c1nc2c(F)cccc2[nH]1 [CEN-19, (S)-4-((S)-2-Ethylpiperidin-1-yl)-N—((S)-1-(4-fluoro-1H-benzo[d]imidazol-2-yl)ethyl)-2-((6-methylbenzo[d]oxazol-2-yl)amino)-4-oxobutanamide] | 1.1
